Legend:
[1] = biological target: T1, human dopamine D3 receptors (Homo sapiens, UniProt P35462); experiment: Dopamine D3 receptor binding assay ([3H]spiperone, CHO cell membranes); conditions: for Ki: human D3 receptors in CHO cells, 0.2 nM [3H]spiperone, mean ± SEM, read-out: Affinity Ki (D3); for Selectivity Ki(D2)/Ki(D3): ratio of Ki(D2) to Ki(D3)
T1 construct: expressed in transfected cells
Method: (§1) Compounds synthesized in Examples A, B, C and D were assayed to test their affinity for dopamine D3 and D2 receptors.
(§2) METHODS: Dopamine D2S and D3 Receptor Binding Assays
Human D3 receptors stably expressed in CHO cells were used as described by Sokoloff et al. (Sokoloff, P. et al., Eur. J. Pharmacol. 1992, 225, 331-337). The cell line was cultured in Dulbecco's modified Eagle's medium supplemented with 2 mM glutamine, and 10% dialyzed fetal bovine serum, and were grown in an atmosphere of 5% CO2 at 37° C. (Gibco™).
(§3) Human D2S- and D3 receptors expressing cell lines were grown to confluence. The medium was removed, and the cells were washed with 10 ml PBS buffer (140 mM NaCl, 3 mM KCl, 1.5 mM KH2PO4, 8 mM Na2HPO4, pH 7.4) at 4° C. After removing the wash buffer, the cells were scraped from the flasks into 15 ml of ice-cold media, and centrifuged at 3,000 rpm for 10 minutes at 4° C. After centrifugation the medium was removed and the […] resuspended in ice-cold Tris-HCl buffer containing 5 mM MgCl2, pH 7.4 and disrupted with a Polytron and centrifuged at 20,000 rpm, for 30 minutes at 4° C. The pellet was resuspended by sonication in ice-cold Tris-HCl buffer (containing 5 mM MgCl2, pH 7.4), membrane aliquots were stored at −70° C. Determination of membrane protein was carried out by the method of Bradford (Bradford, M. M. Anal Biochem 1976, 72, 248-54).
(§4) Cell membranes containing human D2S and D3 receptors from CHO cells were thawed, rehomogenized with sonication at 4° C. in Tris-HCl, pH 7.4 containing 120 mM NaCl, 5 mM KCl, 2 mM CaCl2 and 1 mM MgCl2 (incubation buffer), and incubated with 0.2 nM [^3H]spiperone (106 Ci·mmol^−1, Amersham Biosciences, Freiburg, Germany), and drug diluted in incubation buffer. Non-specific binding was determined in the presence of 10 μM BP 897 ((Wermuth, C. G. et al. in Chem. Abstr. (Eur. Pat. 0779284, 1997)). Incubations were run at 25° C. for 120 min, and terminated by rapid filtration through PerkinElmer GF/B glass fibre filters (PerkinElmer Life Sciences, Rodgau, Germany) coated in 0.3% polyethylenimine (Sigma-Aldrich, Taufkirchen, Germany) using an Inotech cell harvester (Inotech AG, Dottikon, Switzerland). Unbound radioligand was removed with four washes of 1 ml of ice-cold 50 mM Tris-HCl buffer, pH 7.4, containing 120 mM NaCl. The filters were soaked in 9 ml Beta plate scint scintillator and counted using a PerkinElmer MicroBeta®Trilux scintillation counter (PerkinElmer Life Sciences). Competition binding data were analyzed by the software GraphPad Prism™ (2000, version 3.02, San Diego, Calif., USA), using non-linear least squares fit. For detailed screening the compounds have been tested at seven concentrations in triplicate carrying out three to five separate binding experiments for human dopamine D2S and for human dopamine D3 receptors and expressed as mean±standard error of the mean (SEM). Ki values were calculated from the IC50 values according to Cheng-Prusoff equation (Cheng, Y. C., Prusoff, W. H. Biochem. Pharmacol. 1973, 22, 3099-3108.).

[2] = biological target: T2, recombinant human D2(short) dopamine receptor (Homo sapiens, UniProt P14416); experiment: Dopamine D2S receptor binding assay ([3H]spiperone, CHO cell membranes); conditions: human D2S receptors in CHO cells, 0.2 nM [3H]spiperone, mean ± SEM; read-out: Affinity Ki (D2)
T2 construct: expressed in transfected cells; host or cells: CHO-D2S cells (per Hayes et al. 1992)
Method: as §1, §2
CHO-D2S cells, expressing the recombinant human D2(short) dopamine receptor gene, (Hayes, G. et al., J. Mol. Endocrinol. 1992, 6, 920-926) were grown in Dulbecco's modified Eagle's medium/nutrient mixture F12 1:1 mixture supplemented with 2 mM glutamine, 10% fetal bovine serum, and 10 μl·ml^−1 penicillin/streptomycin in an atmosphere of 5% CO2 at 37° C. (Gibco™, Karlsruhe, Germany).
as §3, §4

T2 sequence (P14416 1-414 isoform P14416-2): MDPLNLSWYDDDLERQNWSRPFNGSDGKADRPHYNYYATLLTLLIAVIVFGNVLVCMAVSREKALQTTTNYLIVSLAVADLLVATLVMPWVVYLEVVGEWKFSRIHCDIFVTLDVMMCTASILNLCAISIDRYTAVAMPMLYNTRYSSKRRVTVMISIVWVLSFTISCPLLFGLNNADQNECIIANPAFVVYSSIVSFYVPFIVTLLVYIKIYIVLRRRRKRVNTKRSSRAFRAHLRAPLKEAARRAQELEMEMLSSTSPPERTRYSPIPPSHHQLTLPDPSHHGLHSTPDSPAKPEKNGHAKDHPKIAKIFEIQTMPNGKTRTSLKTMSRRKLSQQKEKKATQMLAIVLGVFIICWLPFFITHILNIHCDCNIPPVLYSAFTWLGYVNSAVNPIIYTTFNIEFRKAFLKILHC
T1 sequence (P35462 whole entry): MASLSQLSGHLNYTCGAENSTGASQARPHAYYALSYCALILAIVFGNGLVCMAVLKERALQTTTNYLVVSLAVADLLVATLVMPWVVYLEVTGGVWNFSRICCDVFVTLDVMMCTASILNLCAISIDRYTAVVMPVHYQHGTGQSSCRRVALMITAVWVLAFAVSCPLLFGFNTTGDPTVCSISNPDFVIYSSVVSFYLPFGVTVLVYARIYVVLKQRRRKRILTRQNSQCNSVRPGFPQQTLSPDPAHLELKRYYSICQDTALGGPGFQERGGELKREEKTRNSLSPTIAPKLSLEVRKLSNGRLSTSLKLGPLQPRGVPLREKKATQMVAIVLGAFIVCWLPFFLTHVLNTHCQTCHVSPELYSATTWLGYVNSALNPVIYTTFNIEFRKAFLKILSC

| Ki [1] | Selectivity Ki(D2)/Ki(D3) [1] | Ki [2] | Structure (SMILES) |
| --- | --- | --- | --- |
| 2.26 ± 0.79 nM | 746 | 1680 ± 382 nM | CCCN(CCCCNC(=O)c1ccccc1)C1CCc2ncsc2C1 (stereo not drawn) [Compound 1, N-{4-[Propyl-(4,5,6,7-tetrahydro-benzothiazol-6-yl)-amino]-butyl}-benzamide] |
| 147 ± 30 nM | 143 | 21000 ± 2550 nM | O=C(NCCCCNC1CCc2ncsc2C1)c1ccc2ccccc2c1 (stereo not drawn) [Compound 2, Naphthalene-2-carboxylic acid [4-(4,5,6,7-tetrahydro-benzothiazol-6-ylamino)-butyl]-amide] |
| 25.4 ± 9.6 nM | 151 | 3820 ± 1100 nM | CN(CCCCNC(=O)c1ccc2ccccc2c1)C1CCc2ncsc2C1 (stereo not drawn) [Compound 3, Naphthalene-2-carboxylic acid {4-[methyl-(4,5,6,7-tetrahydro-benzothiazol-6-yl)-amino]-butyl}-amide] |
| 2.7 ± 0.94 nM | 581 | 1570 ± 303 nM | CCN(CCCCNC(=O)c1ccc2ccccc2c1)C1CCc2ncsc2C1 (stereo not drawn) [Compound 4, Naphthalene-2-carboxylic acid {4-[ethyl-(4,5,6,7-tetrahydro-benzothiazol-6-yl)-amino]-butyl}-amide] |
| 1.16 ± 0.17 nM | 751 | 873 ± 388 nM | CCCN(CCCCNC(=O)c1ccc2ccccc2c1)C1CCc2ncsc2C1 (stereo not drawn) [Compound 5, Naphthalene-2-carboxylic acid {4-[propyl-(4,5,6,7-tetrahydro-benzothiazol-6-yl)-amino]-butyl}-amide] |
| 0.95 ± 0.2 nM | 486 | 459 ± 83 nM | C=CCN(CCCCNC(=O)c1ccc2ccccc2c1)C1CCc2ncsc2C1 (stereo not drawn) [Compound 6, Naphthalene-2-carboxylic acid {4-[allyl-(4,5,6,7-tetrahydro-benzothiazol-6-yl)-amino]-butyl}-amide] |
| 7.76 ± 1.37 nM | 1170 | 9080 ± 684 nM | C#CCN(CCCCNC(=O)c1ccc2ccccc2c1)C1CCc2ncsc2C1 (stereo not drawn) [Compound 7, Naphthalene-2-carboxylic acid {4-[prop-2-ynyl-(4,5,6,7-tetrahydro-benzothiazol-6-yl)-amino]-butyl}-amide] |
| 108 ± 40 nM | 77 | 8370 ± 3820 nM | CC#CCN(CCCCNC(=O)c1ccc2ccccc2c1)C1CCc2ncsc2C1 (stereo not drawn) [Compound 8, Naphthalene-2-carboxylic acid {4-[but-2-ynyl-(4,5,6,7-tetrahydro-benzothiazol-6-yl)-amino]-butyl}-amide] |
| 292 ± 41 nM | 80 | 23400 ± 1220 nM | O=C(NCCCCNC1CCc2ncsc2C1)c1cc2ccccc2s1 (stereo not drawn) [Compound 10, Benzo[b]thiophene-2-carboxylic acid [4-(4,5,6,7-tetrahydro-benzothiazol-6-ylamino)-butyl]-amide] |
| 52.6 ± 5.1 nM | 65 | 3390 ± 388 nM | CN(CCCCNC(=O)c1cc2ccccc2s1)C1CCc2ncsc2C1 (stereo not drawn) [Compound 11, Benzo[b]thiophene-2-carboxylic acid {4-[methyl-(4,5,6,7-tetrahydro-benzothiazol-6-yl)-amino]-butyl}-amide] |
| 2.92 ± 0.48 nM | 856 | 2500 ± 463 nM | CCN(CCCCNC(=O)c1cc2ccccc2s1)C1CCc2ncsc2C1 (stereo not drawn) [Compound 12, Benzo[b]thiophene-2-carboxylic acid {4-[ethyl-(4,5,6,7-tetrahydro-benzothiazol-6-yl)-amino]-butyl}-amide] |
| 16 ± 6 nM | 141 | 2280 ± 105 nM | CCCN(CCCCNC(=O)c1cc2ccccc2s1)C1CCc2ncsc2C1 (stereo not drawn) [Compound 13, Benzo[b]thiophene-2-carboxylic acid {4-[propyl-(4,5,6,7-tetrahydro-benzothiazol-6-yl)-amino]-butyl}-amide] |
| 5.61 ± 0.3 nM | 375 | 2100 ± 327 nM | CCN(CCCCNC(=O)c1ccc2ncsc2c1)C1CCc2ncsc2C1 (stereo not drawn) [Compound 14, Benzothiazole-6-carboxylic acid {4-[ethyl-(4,5,6,7-tetrahydro-benzothiazol-6-yl)-amino]-butyl}-amide] |
| 0.65 ± 0.09 nM | 531 | 347 ± 133 nM | CCCN(CCCCNC(=O)c1ccc2ncsc2c1)C1CCc2ncsc2C1 (stereo not drawn) [Compound 15] |
| 8.11 ± 1.23 nM | 495 | 4010 ± 383 nM | CCCN(CCCCNC(=O)C=Cc1ccccc1)C1CCc2ncsc2C1 (stereo not drawn) [Compound 16, N-{4-[Propyl-(4,5,6,7-tetrahydro-benzothiazol-6-yl)-amino]-butyl}-cinnamoylamide] |
| 2.41 ± 1 nM | 184 | 445 ± 55 nM | CCCN(CCCCNC(=O)C=Cc1ccc(Cl)cc1Cl)C1CCc2ncsc2C1 (stereo not drawn) [Compound 17, 2,4-Dichloro-N-{4-[propyl-(4,5,6,7-tetrahydro-benzothiazol-6-yl)-amino]-butyl}-cinnamoylamide] |
| 0.57 ± 0.04 nM | 1479 | 842 ± 35 nM | CCCN(CCCCNC(=O)C=Cc1ccc(F)cc1)C1CCc2ncsc2C1 (stereo not drawn) [Compound 18, 4-Fluoro-N-{4-[propyl-(4,5,6,7-tetrahydro-benzothiazol-6-yl)-amino]-butyl}-cinnamoylamide] |
| 83 ± 2 nM | 30 | 2520 ± 144 nM | CCCN(CCCCNC(=O)c1cnc(-c2ccc(Cl)cc2)s1)C1CCc2ncsc2C1 (stereo not drawn) [Compound 19, 2-(4-Chloro-phenyl)-thiazole-5-carboxylic acid {4-[propyl-(4,5,6,7-tetrahydro-benzothiazol-6-yl)-amino]-butyl}-amide] |
| 2.62 ± 0.16 nM | 582 | 1530 ± 297 nM | CCCN(CCCCNC(=O)C1CCCCC1)C1CCc2ncsc2C1 (stereo not drawn) [Compound 20, Cyclohexanecarboxylic acid {4-[propyl-(4,5,6,7-tetrahydro-benzothiazol-6-yl)-amino]-butyl}-amide] |
| 6.46 ± 3.25 nM | 1152 | 7440 ± 2290 nM | CCCN(CCCCNC(=O)N1CCCCC1)C1CCc2ncsc2C1 (stereo not drawn) [Compound 21, Piperidine-1-carboxylic acid {4-[propyl-(4,5,6,7-tetrahydro-benzothiazol-6-yl)-amino]-butyl}-amide] |
| 2.97 ± 1.23 nM | 1642 | 4870 ± 1050 nM | CCCN(CCCCNC(=O)NC1CCCCC1)C1CCc2ncsc2C1 (stereo not drawn) [Compound 22, 1-Cyclohexyl-3-{4-[propyl-(4,5,6,7-tetrahydro-benzothiazol-6-yl)-amino]-butyl}-urea] |
| 1.72 ± 0.22 nM | 1262 | 2170 ± 566 nM | CCCN(CCCCNC(=O)C1CCc2ccccc2C1)C1CCc2ncsc2C1 (stereo not drawn) [Compound 23, 1,2,3,4-Tetrahydro-naphthalene-2-carboxylic acid {4-[propyl-(4,5,6,7-tetrahydro-benzothiazol-6-yl)-amino]-butyl}-amide] |
| 1.52 ± 0.55 nM | 1189 | 1810 ± 376 nM | CCCN(CCCCNC(=O)C1Cc2ccccc2C1)C1CCc2ncsc2C1 (stereo not drawn) [Compound 26, Indane-2-carboxylic acid-{4-[propyl-(4,5,6,7-tetrahydrobenzothiazol-6-yl)amino]butyl}amide] |
| 2.25 ± 1.24 nM | 1422 | 3190 ± 1470 nM | CCCN(CCCCNC(=O)N1Cc2ccccc2C1)C1CCc2ncsc2C1 (stereo not drawn) [Compound 27, 1,3-Dihydro-isoindole-2-carboxylic acid {4-[propyl-(4,5,6,7-tetrahydro-benzothiazol-6-yl)-amino]-butyl}-amide] |

From patent US8389555B2, “Medicaments” (Motac Neuroscience Limited, priority 2007, dated 2013)
